Results published in US20130071414A1, “ENGINEERED CD19-SPECIFIC T LYMPHOCYTES THAT COEXPRESS IL-15 AND AN INDUCIBLE CASPASE-9 BASED SUICIDE GENE FOR THE TREATMENT OF B-CELL MALIGNANCIES” (priority 2011, published 2013).

What was measured:
[1] = tested on: iC9/CAR.19/IL-15^+ T cells expressing eGFP-FFLuc; test: In vivo validation of the suicide gene, Raji-engrafted mice with labeled iC9/CAR.19/IL-15^+ T cells; set-up: species or system SCID mice; settings: Raji i.v., after CID i.p.
Description: In vivo validation of the suicide gene. To evaluate the functionality of the suicide gene, mice bearing tumor cells and receiving iC9/CAR.19/IL-15^+ T cells labeled with the eGFP-FFluc gene were treated with CID ([…]) i.p. 2 to 3 doses every other day.^27 CID treatment was initiated when the T-cell bioluminescent signal was exponentially increasing, indicating active expansion of the transgenic cells. Mice were then imaged as described above.
Mice were engrafted i.v. with Raji tumor cells and then infused with eGFP-FFLuc labeled iC9/CAR.19/IL-15^+ T cells. These cells localized and expanded at the tumor site by day 14 after infusion as assessed by bioluminescence measurement (FIG. 6b).

[2] = tested on: inducible caspase-9 suicide gene in iC9/CAR.19/IL-15^+ T cells; settings: previous observation (ref 27); cited from earlier work

SMILES: CC[C@H](C(=O)N1CCCC[C@H]1C(=O)O[C@H](CCc1ccc(OC)c(OC)c1)c1cccc(OCC(=O)NCC(CNC(=O)COc2cccc([C@@H](CCc3ccc(OC)c(OC)c3)OC(=O)[C@@H]3CCCCN3C(=O)[C@@H](CC)c3cc(OC)c(OC)c(OC)c3)c2)CN(C)C)c1)c1cc(OC)c(OC)c(OC)c1 [CID, AP20187]
- T-cell bioluminescence after administration of the CID [1]: 1.3×10^5±3×10^4 p/s/cm^2/sr
- Fraction of cells that escape apoptosis/necrosis shortly after exposure to the dimerizer drug [2]: < 10%
